Source: patent US20210032806A1, “ANTIMICROBIAL FABRIC TREATMENT” (The Procter & Gamble Company, priority 2019, published 2021)
Converted amounts (≈) assume the structure as drawn.

Experiments:
Assay type in all cases: cell-based
[1] = test system: Staphylococcus aureus (S. aureus—ATCC #6538); assay: Antibacterial efficacy on cotton fabrics; conditions: cotton fabric, 625 ppm active in liquor with 3750 ppm C12-C14 EO7, 1 h contact; for Number of bacteria recovered from treated fabrics: nil AB reference 9.1 × 10^5 CFU/ml
Protocol: The bactericidal efficacy on fabric surfaces of treatments with antimicrobial aqueous liquors comprising different antimicrobial agents was determined against the bacterium Staphylococcus aureus (S. aureus—ATCC #6538). The bacteria inoculum was prepared by transferring several colonies from a Tryptone Soy Agar (TSA) plate to a saline solution (0.85% NaCl) comprising 5% horse serum as additional soil load, the bacteria concentration in this saline solution was determined by measuring the % Transmittance at 425 nm and adjusted by either adding more bacteria or more saline solution until the % Transmittance at 425 nm is between 23-25% which corresponds to a bacteria concentration of 10^8 CFU/ml.
Fabric carriers, 1 cm×1 cm disks of cotton sterilized by autoclaving, were inoculated with 30 μL of the 10^8 CFU/ml bacteria inoculum and incubated for 20 mins at 32° C. After this incubation period, 3 fabric carriers were placed within bundles of 10 clean sterile cotton disks and secured by placing a sterile 30 mm paperclip to the edge of the bundle. The fabric bundles were placed in 30 ml of antimicrobial aqueous liquors to be used in the method of the present invention comprising 3750 ppm of C12-C14 EO7 alkyl ethoxylate non ionic surfactant and 625 ppm of either bispyridinium alkane (octenidine dihydrochloride), N-(3-aminopropyl)-N-dodecylpropane-1,3-diamine (Lonzabac 12.30) or benzalkonium chloride (Sigma-Aldrich CAS number 63449-41-2) as antimicrobial actives. The contact time between the bacteria in the fabric carriers and the antimicrobial aqueous liquor was 1 h. After this contact time, each fabric bundle was rinsed for 5 minutes with water and the 3 fabric carries transferred to 9 ml of neutralizer solution (Modified Letheen Broth+1.5% Polysorbate 80, supplied by BioMérieux) to stop the antimicrobial action of the antimicrobial active. The neutralizer tube containing the fabric carriers was vortexed in a Genie 2 vortexer set at speed 7 for 30 seconds. Ten-fold dilutions of the neutralizer+fabric carrier solution were prepared by transferring 1 ml of the neutralizer solution to 9 ml of neutralizer solution, this solution was further diluted in neutralizer solution following the same protocol so that serial ten-fold dilutions were obtained. 100 μL of each of the serial dilutions were plated on a TSA plate, plates were incubated at 32° C. for 18 hours, after this incubation time, the number of colonies in each plate was counted. The target dilution used to determine the bactericidal efficacy of aqueous liquor of the method of the present invention was the one delivering 30-300 CFU in the plate, the data reported for each antimicrobial active is the average of the bacteria number in three plates multiplied by the target dilution. The log reduction for each antibacterial treatment vs nil antibacterial active reference is the log 10 of the number obtained by dividing the number of colonies recovered from the fabrics treated with the nil antibacterial reference aqueous liquor by the number of colonies recovered from the fabrics treated with aqueous liquors comprising the different antimicrobial actives.
Cotton fabrics inoculated with bacteria were treated for 1 hour with aqueous liquors comprising 3750 ppm of C12-C14 EO7 alkyl ethoxylate non ionic surfactant and either no antibacterial active (ref) or 625 ppm of octenidine hydrochloride, 625 ppm of Lonzabac 12.30 or 625 ppm of benzalkonium chloride as antibacterial actives. After the treatment, the bacteria remaining on the treated fabrics were extracted and quantified. It can be seen that the treatment done with the aqueous liquor comprising octenidine hydrochloride provides better antibacterial efficacy, i.e. less bacteria remaining on fabrics, and higher log reduction, than the treatments done with aqueous liquors comprising either Lonzabac or benzalkonium chloride.

[2] = test system: Staphylococcus aureus (S. aureus—ATCC #6538); assay: Minimum Biocidal Concentration (MBC) in suspension, S. aureus; conditions: 6 minutes contact time, 5% horse serum soil load
Protocol: (§1) The antimicrobial efficacy of the antimicrobial agent in the aqueous liquor is determined by measuring its Minimum Biocidal Concentration (MBC). The MBC is defined as the lowest absolute concentration of the particular antimicrobial active which provides complete kill (zero bacterial growth). The MBC of the bispyridinium alkane antimicrobial active is determined against the bacterium, Staphylococcus aureus (S. aureus—ATCC #6538), a gram positive bacterium, and against Escherichia coli (E. coli ATCC #8739) these microorganisms are representative of natural contaminants in many consumer and industrial applications. The bacteria inoculum is prepared by transferring several colonies from a Tryptone Soy Agar (TSA) plate to a saline solution (0.85% NaCl) comprising 5% of horse serum as additional soil load, the bacteria concentration in this saline solution is determined by measuring the % Transmittance at 425 nm and adjusted by either adding more bacteria or more saline solution until the % Transmittance at 425 nm is between 23-25% for S. aureus and 31-33% for E. coli. These % Transmittance values correspond to a bacteria concentration of 10^8 CFU/ml.
(§2) The antimicrobial agent was added to the aqueous liquor to be used in the method of the present invention at a level of 200 ppm, or 100 ppm or 50 ppm. 200 μL of the antimicrobial aqueous liquor was dosed into one well of row A of a 96 well microtiter plate. Each subsequent well (rows B to G) were dosed with 100 μL of the same aqueous liquor, without the addition of the antimicrobial agent. 100 μL of the antimicrobial aqueous liquor was transferred from row A to row B and mixed. 100 μL of the antimicrobial aqueous liquor was then transferred from row B to row C and mixed, and the process repeated to row G. As such, the concentration of the antimicrobial agent underwent two-fold dilution in adjacent wells, while the concentration of any adjunct present in the aqueous liquor remained constant across all the wells in the same column.
10 μL of the 10^8 CFU/ml bacteria suspension in saline was added to wells A to F of the microtiter plate with row G kept as a nil bacteria control. The final volume in each well was 110 μL, except for row G which comprised 100 μL of the hard surface cleaning composition and no bacteria suspension. Bacterial inoculation to each column was staggered by 30 seconds to allow for equal incubation times in all wells so that the contact time between the bacteria and the antimicrobial active for all samples was 6 mins. After this contact time, 10 μL of each test solution was transferred to 90 μL of neutraliser solution (Modified Letheen Broth+1.5% Polysorbate 80, supplied by BioMérieux) to stop the antimicrobial action of the antimicrobial active matching the stagger of the inoculation. 2 μL of this solution was plated onto a TSA plate matching the stagger of the inoculation so that all samples are exposed to the neutralizer for the same period of time. The plate is incubated at 32.5° C. for 24-48 h for S. aureus, and 24 h for E. coli. MBC concentration is taken as the lowest concentration of the antimicrobial active at which no visible colony growth is observed on the TSA plate.
(§3) The antibacterial efficacy of the bispyridinium alkane octenidine hydrochloride was compared to that of N-(3-aminopropyl)-N-dodecylpropane-1,3-diamine (Lonzabac 12.30-Lonza) and n-alkyl dimethyl benzyl ammonium chloride/n-alkyl dimethyl ethylbenzyl ammonium chloride (BTC2125-Stepan) in different aqueous liquors. The minimal biocidal concentration (MBC) in suspension of each antibacterial active against a gram positive bacterium (Staphylococcus aureus) and a gram negative bacterium (Escherichia coli) was determined after 6 minutes contact time.

[3] = test system: Escherichia coli (E. coli ATCC #8739); assay: Minimum Biocidal Concentration (MBC) in suspension, E. coli; conditions: 6 minutes contact time, 5% horse serum soil load; for MBC: Escherichia coli, ATCC8739, 0.1 h
Protocol: as §1, §2
10 μL of the 10^8 CFU/ml bacteria suspension in saline was added to wells A to F of the microtiter plate with row G kept as a nil bacteria control. […]
as §3

[4] = aqueous liquor 2: Octyliminodipropionate (Ampholak YJH 40) 0.1%
[5] = aqueous liquor 3: C12-C14 EO7 alcohol ethoxylate 0.1%
[6] = aqueous liquor 5: Sodium lauroamphohydroxypropylsulfonate (Miranol JS) 0.0062%
[7] = aqueous liquor 7: Octyliminodipropionate (Ampholak YJH 40) 0.0062%
[8] = aqueous liquor 8: C12-C14 EO7 alcohol ethoxylate 0.0062%

Compound	Log reduction vs treatment with nil AB active reference [1]	Number of bacteria recovered from treated fabrics [1]	MBC S. aureus ([2]; aqueous liquor 1: deionized water) [ppm]	MBC S. aureus [2, 4] [ppm]	MBC S. aureus [2, 5] [ppm]	MBC S. aureus [2, 6] [ppm]	MBC E. coli [3, 7] [ppm]	MBC E. coli [3, 8] [ppm]	MBC ([2]; Staphylococcus aureus, ATCC6538, 0.1 h, aqueous liquor 1: deionized water) [µg/mL]	MBC S. aureus ([2]; aqueous liquor 4: Disodium capryloamphodiacetate (Mackam 2CY75) 0.025%) [ppm]	MBC [3, 7] [µg/mL]	MBC [3, 8] [µg/mL]
CCCCCCCCN=c1ccn(CCCCCCCCCCn2ccc(=NCCCCCCCC)cc2)cc1.Cl.Cl [Octenidine, octenidine dihydrochloride]	Log 2.5	2.8 × 10^3 CFU/ml	3.125	3.125	6.25	3.125	3.125	6.25	–	–	–	–
benzalkonium chloride	Log 1.2	5.8 × 10^4 CFU/ml	–	–	–	–	–	–	–	–	–	–
CCCCCCCCCCCCN(CCCN)CCCN [Lonzabac 12.30, N-(3-aminopropyl)-N-dodecylpropane-1,3-diamine]	Log 0.7	1.9 × 10^5 CFU/ml	–	25	25	25	–	–	25 (≈ 83.5 µM)	25	50 (≈ 167 µM)	25 (≈ 83.5 µM)
